Measured values from patent US9365830B2, “Agents and methods for inhibiting human pluripotent stem cell growth” (VIACYTE, INC., priority 2010, dated 2016).

How the values were obtained:
Assay type in all cases: cell-based, human
[1] = test system: pancreatic endoderm differentiations of hESCs; assay: Suspension aggregate differentiation to pancreatic endoderm after Stage 1 treatment, Q-PCR; settings: Stage 1 cultures treated with 0.1 μM Caffeic acid or 0.17 μM Ivermectin
Description: FIGS. 10A-10I are bar graphs showing the relative gene expression levels of OCT4 (FIG. 10A), MIXL (FIG. 10B), HNF1B (FIG. 10C), HNF4A (FIG. 10D), PAX4 (FIG. 10E), NGN3 (FIG. 10F), NKX2.2 (FIG. 10G), NKX6.1 (FIG. 10H), and PTF1A (FIG. 10I) after treatment of suspension aggregate cell cultures at Stages 1 with DMSO (Control), 0.1 μM Caffeic acid or 0.17 μM Ivermectin agents. Untreated control samples were collected at d0 and d1 (left panel). Treated samples were collected at d2, d3, d5, d7, d9, d11, and d13. The columns for each day of the treated samples are (from left to right): DMSO, Caffeic acid, and Ivermectin. The cultures were differentiated to the end of Stage 4. The results from an untreated, pancreatic endoderm differentiation are shown on the right, with samples collected on days 0, 1, 2, 5, 8, 10 and 14.
To further determine the effects of the above compounds (excluding those compounds that induced off-target differentiation), three selected compounds (chelerythrine chloride (FIGS. 5 & 6), caffeic acid and Ivermectin) were screened for effects on later stages of pancreatic differentiation, (such as Stages 2-5). Human ESCs were first differentiated through Stage 1 then to Stages 2 to 5 in suspension aggregate cultures similar to that above. Stage 1 cultures were treated with DMSO, caffeic acid or Ivermectin substantially as described above. Untreated control samples were collected at d0 (hESC) and d1 (FIG. 10, left panel), while treated samples were collected at days 2, 3, 5, 7, 9, 11 and 13 (FIG. 10 d2, d3, d5, d7, d9, d11 and d13 respectively). Gene expression levels in the collected samples were analyzed using Q-PCR and compared to the d0 (hESC) sample as well as qualified pancreatic endoderm (FIG. 10, right panel). The qualified pancreatic endoderm control consisted of about 50% pancreatic endoderm, about 46% endocrine cells and about 4% “other” cells as determined by flow cytometry. Neither caffeic acid nor Ivermectin affected survival, growth and/or proliferation of pancreatic endoderm differentiations. […] Typical gene expression levels for Stages 3, 4 and 5 cells were normal; for example, increased expression of NKX6.1 and PTF1A at Stage 4, pancreatic endoderm (FIGS. 10H and 10I), and of NGN3 and NKX2.2 at Stage 5, endocrine precursor and endocrine cells (FIGS. 10 F and 10G) was observed.

[2] = test system: undifferentiated hESCs growing in adherent culture; assay: EC50 of cytotoxic effect on undifferentiated hESCs in adherent culture, real-time impedance assay; settings: Homo sapiens, read-out: EC50 concentrations for hES cells (cytotoxic effect)
Description: In summary, the final three (3) candidates identified from both the primary and secondary screens (EXAMPLE 1) and the full screen of the LOPAC1280™ collection (EXAMPLE 2) were Chelerythrine Chloride, Caffeic acid and Ivermectin. FIG. 11 lists the known or inferred mode(s) of action for these three compounds, as well as their structures. EC50 values for the respective cytotoxic effects on undifferentiated hESCs growing in adherent culture were determined using real-time impedance assays.
(§1) Depletion of OCT4-positive cells during Stage 1 differentiation was examined using the plating assay described above. Stage 1 differentiations of hES cells were treated from day 1 to 2 with the candidate compounds as described in Example 2 (chelerythrine chloride, caffeic acid and Ivermectin), at their EC50 concentrations for hES cells. Plated untreated and DMSO-treated aggregates were indistinguishable, and both contained discrete clusters of OCT4-positive cells. See FIG. 13A top and bottom panels for a DMSO treated example. The intensity of OCT4-positive staining in differentiating aggregate cell cultures treated with DMSO (control) was equivalent to undifferentiated hES cells.

[3] = test system: OCT4-positive cells in Stage 1 differentiations of hES cells; assay: Plating assay for depletion of OCT4-positive cells in Stage 1 suspension aggregates, OCT4 immunostaining
Description: Human ES cell suspension aggregates were formed in rotational culture as described previously and differentiated through Stage 1 (definitive endoderm). About 20-30 aggregates were then plated per well in 4-well tissue culture dishes coated with MATRIGEL· diluted 1:200, and cultured for 24 hours in hESC medium (DMEM/F12, 10% XF-KSR, 10 ng/mL Activin A and 10 ng/mL Heregulin). This approach was intended to increase the contrast in OCT4 expression between undifferentiated hESCs and cells committed to differentiation. […] Stated in another way, mixed population cell cultures in hESC medium would potentially support expansion/proliferation of residual undifferentiated (hESCs), thereby show increased OCT4 gene expression, as compared to cells committed to differentiation, which would have decreased of OCT4 gene expression. Plated aggregates were immunostained for OCT4 protein and counterstained with DAPI, a nuclear stain (FIG. 12). The cell aggregates that were plated had flattened and spread out within a 24-hour period; while the centers of the aggregates were still domed. […] Brightly staining OCT4-positive cells were easily identified and distinguishable from the majority of OCT4 negative cells. OCT4-positive cells were generally found in clusters and most often within the domed area of a plated aggregate. […] Smaller aggregates residing in a larger aggregate may occur as a result of the initial stages of rotational culture, or the aggregation process, during which small clusters (primary aggregates) form initially. Aggregation of two or more primary aggregates likely leads to the formation of larger secondary aggregates, which can be 100-150 μm in diameter. Thus, it is possible that any single clusters of OCT4-positive cells exist at the center of a primary aggregate and resist differentiation. Such clusters would remain substantially undifferentiated and stain OCT4-positive. One hypothesis is that primary aggregates are specified to differentiation relative to their positioning in primary and secondary aggregates. For example, FIGS. 12A through 12E show a representative series of images, from small (primary) (e.g. FIGS. 12A and 12B) and larger (secondary) (e.g. FIGS. 12C-12E) plated aggregates containing OCT4-positive clusters (dark circles).
as §1
Additional experiments were performed using higher concentrations of compounds and extended effects of the compounds in cell culture plated aggregates in hESC medium for 24 or 72 hours before staining (FIGS. 15 and 16). […] Another group of Stage 1 differentiating cultures were processed in parallel, but treated with 10 μm chelerythrine chloride.

O=C(O)C=Cc1ccc(O)c(O)c1 [caffeic acid, 3,4-dihydroxycinnamic acid]
Typical gene expression levels for Stages 3, 4 and 5 cells (NKX6.1, PTF1A, NGN3, NKX2.2) ([1]; Q-PCR d2-d13): normal
survival, growth and/or proliferation of pancreatic endoderm differentiations (pancreatic endoderm viability) ([1]; differentiated to end of Stage 4): did not affect pancreatic endoderm viability
EC50 [2]: 0.1 µM
size of clusters of OCT4-positive cells ([3]; 5 or 10 μm caffeic acid, 24 hours, vs DMSO-treated (or untreated) controls): smaller in size
expansion of clusters of OCT4-positive cells ([3]; 5 or 10 μm caffeic acid, 72 hours, vs DMSO treated control): did not expand substantially
size of OCT4-positive clusters ([3]; another study, 0.1 μM caffeic acid, 24 hours after plating in hESC medium (FIG. 14, BG02)): even more substantial decrease
intensity for OCT4 staining ([3]; treated day 1 to 2 of Stage 1 at EC50 concentration, plated 24 hours in hESC medium, vs untreated or DMSO): significantly decreased
